Consider 61 compounds from PubChem BioAssay AID2305 (GlaxoSmithKline (GSK), 2010).

This assay relates to P. falciparum 3D7 growth, pLDH absorbance. Briefly: P. falciparum 3D7 growth inhibition, dose response, strain 3D7 (AID 2305).

By IC50 is commonly meant the point on the concentration scale where inhibition reaches its midpoint.

`COCCNCc1cccc(-c2ccc(CN(C(=O)Nc3ccccc3)C3CCN(Cc4ccccc4)CC3)cc2)c1` had an IC50 of 770 nM.

Compound `CC1CCN(Cc2c(O)ccc3c(=O)c(-c4nc5ccccc5s4)c(N)oc23)CC1` displayed an IC50 of 160 nM.

The compound `Cn1cc(-c2ccnc3[nH]c(-c4cccc(CNC5CCC(O)CC5)c4)cc23)cn1` (stereo unspecified) showed an IC50 of 900 nM.

`Cc1cc(Cl)c(S(=O)(=O)N2CCc3ccccc32)cc1OCC(=O)NC1CCCCC1` had an IC50 of 300 nM.

`Cc1ccc(S(=O)(=O)N(CCCN2CCN(C)CC2)Cc2csc(-c3ccc(CNCc4ccccc4)cc3)n2)cc1` showed an IC50 of 840 nM.

In turn, `CCNC[C@H]1CCCN1CCOc1ccc(-n2cnc3cc(-c4ccc(Cl)cc4)sc3c2=O)cc1OC` showed an IC50 of 810 nM.

`Cc1ccc(Nc2nccc(Nc3ccc4c(c3)nc(Nc3cc(C(C)(C)C)on3)n4C)n2)cc1S(C)(=O)=O`: the IC50 amounted to 600 nM.

Take `COc1cc2c(cc1COc1ccccc1)CCN1Cc3cc(OC)c(OC)cc3CC21` (stereo unspecified): the IC50 came out at 150 nM.

`COc1cccc(Cc2c(C)nc3nc(N)nc(N)c3c2C)c1` yielded an IC50 of 880 nM.

In the case of `Nc1ncc(-c2ccc3nccc(-c4ccncc4)c3c2)cc1S(=O)(=O)N1CCCCC1`, the IC50 was found to be 580 nM.

Compound `O=C(/C=C/c1ccc(Cl)c(Cl)c1)N1CCC(CCN2CCC(c3c[nH]c4cnccc34)CC2)CC1` displayed an IC50 of 120 nM.

The compound `Cc1ccc(NC(=O)c2ccc(CN3CCCN(CCC(C)C)CC3)cc2)cc1C` registered an IC50 of 910 nM.

`CC(CN(C)C)C(=O)Nc1cccc(-c2cccc(-c3nc4ccccc4[nH]3)c2)c1` (stereo unspecified) displayed an IC50 of 1060 nM.

Take `OC(CNCc1ccco1)Cn1c2ccc(Br)cc2c2cc(Br)ccc21` (stereo unspecified): the IC50 worked out at 1070 nM.

For the compound `OC(CNc1ccnc(Nc2ccc(Cl)cc2)n1)c1ccccc1C(F)(F)F` (stereo unspecified), the IC50 was 790 nM.

`COc1cc(CCN=C(N)/C=C/c2ccc(Cl)cc2)ccc1Cl` registered an IC50 of 240 nM.

In turn, `C#CC[C@@H](NC(N)=O)C(=O)O` gave an IC50 of 190 nM.

The compound `Cc1cc(F)ccc1-c1nc(Nc2ccncc2)c2ccn(C)c2n1` registered an IC50 of 940 nM.

The compound `O=C(Cn1c(SCc2cccc(F)c2F)cc(=O)c2ccccc21)N(CCc1cnc[nH]1)Cc1ccc(-c2ccc(C(F)(F)F)cc2)cc1` had an IC50 of 800 nM.

The compound `CCOC(=O)NCCSC(C)(C)[C@H](NC(=O)[C@H](Cc1cc2ccccc2s1)[C@H](CC)N(O)C=O)C(=O)Nc1nccs1` came in with an IC50 of 300 nM.

As for `CS(=O)(=O)c1ccc(Nc2ncc(-c3ccc(S(C)(=O)=O)cc3)c(OCC(F)(F)F)n2)cc1`, the IC50 is 400 nM.

`CCCCCN1CCC(NC(=O)c2ccc(C(=O)Nc3ccc(C(C)C)cc3)cc2)C1` (stereo unspecified) yielded an IC50 of 950 nM.

`COc1ccc2nccc([C@@H](O)CN3CCC(NCc4nc5ccccc5s4)CC3)c2c1` came in with an IC50 of 930 nM.

`COc1ccc(-c2cnc(N)c(-c3nc4ccc(Br)cc4[nH]3)c2)cc1`: the IC50 was 1560 nM.

In turn, `CCNc1cc(C(=O)N[C@@H](Cc2ccccc2)[C@H](O)CNC(C)C)cc(N2CC(c3ccccc3)CCS2(=O)=O)c1` (stereo partly specified) came in with an IC50 of 410 nM.

On to `O=S(=O)(c1ccc(Oc2ccccc2)cc1)N(CCC(O)(C(F)(F)F)C(F)(F)F)Cc1cccc(O)c1`, for which the IC50 stood at 490 nM.

Consider `COc1cccc2c(Nc3ccccc3C)nc(Nc3ccccc3C)nc12`, for which the IC50 was 680 nM.

`COc1cc(F)c2ncc(Cl)c([C@@H](O)CN3CCC(NCc4ccc5c(n4)NC(=O)CO5)CC3)c2c1` returned an IC50 of 120 nM.

Turning to `NC(N)=NC(=O)Nc1ccc([N+](=O)[O-])c(Cl)c1`, the IC50 was determined as 880 nM.

For the compound `CO/C(=C\C=C\c1cc2cc(Cl)c(Cl)cc2[nH]1)C(=O)NCCN1CCCCC1`, the IC50 came out at 1400 nM.

`COc1ccc(CNc2ccnc3cc(OC)ccc23)cc1` gave an IC50 of 770 nM.

`Brc1cc(Br)c2c(c1)C(NCCCNc1nc3ncccc3[nH]1)CCN2` (stereo unspecified) gave an IC50 of 590 nM.

On to `Cc1cccc(CCNC(=O)c2cc(Br)cc(N3CCN(c4ccncc4)CC3)c2)c1`, for which the IC50 stood at 870 nM.

Regarding `O=S(=O)(Nc1ccc(CCN2CCCCC2CCN2CCCC2)cc1)c1ccc(-c2ccccc2)cc1` (stereo unspecified), the IC50 was 930 nM.

In turn, `CC(C)c1ccc2oc(-c3ccc(NC(=O)c4ccc([N+](=O)[O-])o4)cc3)nc2c1` had an IC50 of 340 nM.

As to `Nc1nc(N)c2cc(Cc3ccc([N+](=O)[O-])cc3)cnc2n1`, the IC50 is 940 nM.

As to `Cc1cc(C(=O)CN2C(=O)NC3(CCCc4ccccc43)C2=O)c(C)n1Cc1ccc(F)cc1` (stereo unspecified), the concentration for half-maximal inhibition (IC50) is 970 nM.

Consider `CC(C)(CC1CCCCC1)NC(=O)[C@H](CC1CCCCC1)Nc1ccc(C#N)c2ccccc12`, for which the IC50 is 590 nM.

In turn, `O=C(Nc1ccc(F)c(Cl)c1)c1cc([N+](=O)[O-])cc2cn[nH]c12` returned an IC50 of 320 nM.

`Cc1[nH]c2ccc(-c3ccc(OC(F)(F)F)cc3)cc2c(=O)c1C#N` displayed an IC50 of 20 nM.

`COc1ccc2ncc(F)c(CCN3CCC(NCc4cc(C)c5c(c4)OCCO5)CC3)c2n1` returned an IC50 of 490 nM.

As for `CC1(C)N=C(NC(=O)c2cc([N+](=O)[O-])cc([N+](=O)[O-])c2)N=C(N)N1OCc1cccc2ccccc12`, the IC50 was 10 nM.

`Cn1cnc(CCNC(=O)c2cccc(-c3csc(-c4nc5ccccc5[nH]4)c3)c2)c1` came in with an IC50 of 600 nM.

As to `Cc1cc(-c2ccc(NC(=O)N3CCc4cc(Cl)c(N5CCN(C)CC5)cc43)cc2)ccc1C#N`, the IC50 turned out to be 590 nM.

As for `CCCN1CCN(c2ccc(NS(=O)(=O)c3ccc(C(=O)Nc4ccc(Cl)cc4)cc3)cc2)CC1`, the IC50 came to 1110 nM.

`Cc1cc2c(cc1C(F)(F)F)N(C(=O)Nc1ccc(C(=O)NC3CCN(Cc4ccccc4)C3)cc1)CC2` (stereo unspecified) came in with an IC50 of 780 nM.

`CC(C)CCN1CCCN(Cc2ccc(C(=O)Nc3ccc(F)c(F)c3)cc2)CC1` showed an IC50 of 940 nM.

In turn, `Cn1c(Sc2ncnc3sccc23)nc2ccccc21` gave an IC50 of 190 nM.

Consider `COc1ccc(-c2cccc(NC(=O)c3cccc(C#N)c3)c2)cc1CN1CCC(O)CC1`, for which the IC50 was found to be 990 nM.

Regarding `CC(C)CC(=O)N(Cc1ccc(-c2ccc(CNC3Cc4ccccc4C3)cc2)cc1)C1CCNCC1`, the IC50 was 1170 nM.

The compound `COc1ccc(-c2nc(NC(=O)CS(=O)(=O)c3ccc(C)cc3)sc2C)cc1` displayed a 50% inhibitory concentration (IC50) of 400 nM.

On to `COc1ccc(-c2cccc(NC(=O)c3cccc(F)c3)c2)cc1CN1CCCN(C)CC1`, for which the IC50 was 600 nM.

`O=C(/C=C/c1ccc(Cl)c(Cl)c1)NCCCCCN1CCC(NC(=O)Nc2cccc(Cl)c2Cl)CC1`: the IC50 came out at 670 nM.

`Cn1ccnc1CNC(=O)c1ccc(-c2cccc(-c3nc4ccc(C(F)(F)F)cc4[nH]3)c2)cc1` came in with an IC50 of 720 nM.

On to `C=C[C@]1(C)C[C@@H](OC(=O)NC(=O)C2CCN(C(=O)CSc3ccccc3)CC2)[C@]2(C)[C@H](C)CC[C@]3(CCC(=O)[C@H]32)[C@@H](C)[C@@H]1O`, for which the 50% inhibitory concentration (IC50) came to 1010 nM.

As for `CC1CCN(c2nc(C(=O)Nc3cccc4c3CCCC4)c(C(C)C)s2)CC1`, the IC50 stood at 1040 nM.

The compound `CC[C@H]1CN2CC[C@@H]1C[C@H]2[C@H](O)c1cc(N2CCC(C(N)=O)CC2)nc2ccc(OC)cc12` had an IC50 of 770 nM.

As for `COc1cc(F)c2ncc(Cl)c([C@H](O)CN3CCC(NCc4cc5c(cn4)OCCO5)CC3)c2c1`, the IC50 amounted to 100 nM.

The compound `CCC(C)NC(=O)CN1CN(c2ccccc2)C2(CCN(C(=O)c3ccc(C(C)(C)C)cc3)CC2)C1=O` (stereo unspecified) showed an IC50 of 130 nM.

`COc1ccc(-c2cc3ncnc(N4CCN(CCN5CCCC5)CC4)c3s2)cc1` came in with an IC50 of 830 nM.

As for `CC(C)c1ccc(NC(=O)c2ccc(C(=O)NC3CCN(CC4CCCCC4)C3)cc2)cc1` (stereo unspecified), the IC50 stood at 790 nM.
